# From patent US10632181B2, “Composition, containing RGD motif-containing peptide or fragment thereof, for treating burns and glaucoma, alleviating skin wrinkles, and promoting hair growth” (HUONS CO., LTD., priority 2014, dated 2020)
# Positions of bridges follow the written chain, without caps; N, C: chain ends. No end group written: not given here.
# What was measured:
# [1] = test system: glaucoma animal model having microbead-induced elevated intraocular pressure; assay: Glaucoma test: intraocular pressure; assay type: in vivo, mouse; settings: for intraocular pressure change: 20 ug/ml applied to eye once daily
# Protocol: (§1) For control drug, Taflotan eye drops (Santen Pharmaceutical Co., Ltd.) were used, and for test drug, Taflotan eye drops+HU024 (SEQ ID NO:2) (sample 1), HU024 (SEQ ID NO:2) (sample 2), HU025 (SEQ ID NO:3) (sample 3), HU026 (SEQ ID NO:4) (sample 4), and HU027 (SEQ ID NO:5) (sample 5) were used, and testing was performed on glaucoma animal model having microbead-induced elevated intraocular pressure. In experimental animal model, Rompun solution for injection and zoletil were mixed and used to put the experimental animal under anesthesia, topical anesthetic Alcaine was applied to eye, 1×106 microbead/mL 1 μL was injected into anterior chamber using micro glass needle to induce an increase in intraocular pressure for 2 weeks (IOVS 2011 Vol. 52 36-).
# (§2) The control drug and 5 samples were provided to the experimental animal having the elevated intraocular pressure for 2 weeks, 5 samples were applied to eye once daily, comparative verification of efficacy was performed, and intraocular pressure reduction and optic nerve cell in the retina was observed through administration for 4 weeks.
# (§3) The intraocular pressure was measured using a contact-type intraocular pressure meter Tono lab's tonometer TV02 model. […] In 5-7 days after fluorescent probe injection, the eye was enucleated and fixed in 4% paraformaldehyde at room temperature for 4 hours. The retina was separated from choroid of the fixed eye and mounted on a slide. In each experimental group slide, optic nerve cell expressing fluorescence was detected using fluorescence microscope, images were taken at a magnification of ×40 and ×200, and data was collected.
# [2] = test system: optic nerve cell in the retina of glaucoma animal model; assay: Glaucoma test: optic nerve cell in the retina (Fluorogold); assay type: in vivo, mouse; settings: applied to eye once daily, Fluorogold labelling
# Protocol: as §1, §2, §3
# [3] = Hair growth test: body weight; assay type: in vivo; settings: skin
# Protocol: (§4) This test was conducted to assess the influence on hair growth of C57BL/6 mouse when 4 types of test substances, HU024 (SEQ ID NO:2), HU025 (SEQ ID NO:3), HU026 (SEQ ID NO:4), and HU027 (SEQ ID NO:5), were applied to the skin for 14 days.
# (§5) The group design was set to negative control (sterile water for injection G1), test substance HU024 (SEQ ID NO:2) 20 ug/head/day (G2), test substance HU024 (SEQ ID NO:2) 60 ug/head/day (G3), test substance HU025 (SEQ ID NO:3) 20 ug/head/day (G4), test substance HU025 (SEQ ID NO:3) 60 ug/head/day (G5), test substance HU026 (SEQ ID NO:4) 20 ug/head/day (G6), test substance HU026 (SEQ ID NO:4) 60 ug/head/day (G7), test substance HU027 (SEQ ID NO:5) 20 ug/head/day (G8), test substance HU027 (SEQ ID NO:5) 60 ug/head/day (G9) and positive control minoxyl 3% (G10) administered groups. Each group had 10 animals.
# (§6) After the animal was put under anesthesia using zoletil (1 mL/kg, i.p), the back of the animal was primarily shaved using a depilator, and Veet depilatory was evenly applied on the back. After about 5 minutes, the applied site was cleaned up using gauze moistened with sterile water for injection. Only animal whose shaved back was scarlet in color was used for group separation. The test substance was applied to the same site daily once per day, 7 times per week for 14 days, and the test substance was evenly applied to the shaved site (on the back) by rubbing with a glass rod about 10 times.
# The test item was measurements of dead animal, general syndrome, weight change, hair growing area and hair weight, and comparison with negative control was conducted.
# (§7) The measurement results were analyzed using SPSS (ver. 10.1K), Duncan t-test for weight changes was conducted through one-way analysis of variance, hair weight was compared between groups using Student's t-test, and hair growing area was compared between groups through nonparametric multiple comparison procedures Whitney-Mann methods. P<0.05 was determined to be statistically significant.
# [4] = test system: hair growth of C57BL/6 mouse; assay: Hair growth test: hair growing area; assay type: in vivo
# Protocol: as §4, §5, §6
# The hair growing area (%) relative to the test substance-applied area was measured and determined, and Image analyzer program (Image Pro Plus ver. 6.3, Cybermetics, USA) was used to measure. […] Imaging was performed together with the measurements on the date when the hair area was measured. On the next day after the end of application, the animals were killed by CO2 gas, and hair on the hair growing area was removed by a depilator and hair weight was measured.
# as §7
# [5] = test system: hair growth of C57BL/6 mouse; assay: Hair growth test: hair weight; assay type: in vivo
# Protocol: as §4, §5, §6
# The hair growing area (%) relative to the test substance-applied area was measured and determined, and Image analyzer program (Image Pro Plus ver. 6.3, Cybermetics, USA) was used to measure. It was measured on the 1st, 3rd, 7th, 10th and 14th days after test substance administration. Imaging was performed together with the measurements on the date when the hair area was measured. On the next day after the end of application, the animals were killed by CO2 gas, and hair on the hair growing area was removed by a depilator and hair weight was measured.
# as §7
molecule,measurement,setting,value
"CC(C)OC(=O)CCC/C=C\C[C@@H]1[C@@H](/C=C/C(F)(F)COc2ccccc2)[C@H](O)C[C@@H]1O [Tafluprost, reference compound]",intraocular pressure numerical value,"[1]; positive control, eye drops",15.9±2.9 mmHg
same,intraocular pressure reduction as compared to negative control,"[1]; positive control, eye drops",20.89%
same,optic nerve cell death / protection,[2],protection from optic nerve cell death was observed
HU026 (TRGDCDLPEFCP; disulfide 5-11; listed as Homo sapiens),BODY WEIGHTS,"[3]; 20 ug/head/day, Day 1",21.20 ± 0.77 g
same,BODY WEIGHTS,"[3]; 20 ug/head/day, Day 7",22.48 ± 1.12 g
same,BODY WEIGHTS,"[3]; 20 ug/head/day, Day 11",23.75 ± 1.27 g
same,BODY WEIGHTS,"[3]; 60 ug/head/day, Day 1",21.58 ± 0.61 g
same,BODY WEIGHTS,"[3]; 60 ug/head/day, Day 7",22.80 ± 1.03 g
same,BODY WEIGHTS,"[3]; 60 ug/head/day, Day 11",23.83 ± 1.30 g
same,HAIR AREA (%),"[4]; 20 ug/head/day, Day 1",0.10 ± 0.05%
same,HAIR AREA (%),"[4]; 20 ug/head/day, Day 4",0.13 ± 0.07%
same,HAIR AREA (%),"[4]; 20 ug/head/day, Day 7",0.43 ± 0.30%
same,HAIR AREA (%),"[4]; 20 ug/head/day, Day 10",7.67 ± 4.54%
same,HAIR AREA (%),"[4]; 20 ug/head/day, Day 14",56.64 ± 12.26%
same,HAIR AREA (%),"[4]; 60 ug/head/day, Day 1",0.07 ± 0.04%
same,HAIR AREA (%),"[4]; 60 ug/head/day, Day 4",0.22 ± 0.13%
same,HAIR AREA (%),"[4]; 60 ug/head/day, Day 7",0.69 ± 0.37%
same,HAIR AREA (%),"[4]; 60 ug/head/day, Day 10",13.54 ± 4.75%
same,HAIR AREA (%),"[4]; 60 ug/head/day, Day 14",65.41 ± 11.62%
same,HAIR WEIGHTS,[5]; 20 ug/head/day for 14 days,0.021 ± 0.008 g
same,HAIR WEIGHTS,[5]; 60 ug/head/day for 14 days,0.026 ± 0.007 g
same,intraocular pressure change,[1],the intraocular pressure did not reduce
same,optic nerve cell death / protection,[2],protection from optic nerve cell death was observed
NH2—RPTRGDCDL—COOH (H-RPTRGDCDL-OH; listed as Homo sapiens) [HU027],BODY WEIGHTS,"[3]; 20 ug/head/day, Day 1",21.71 ± 0.59 g
same,BODY WEIGHTS,"[3]; 20 ug/head/day, Day 7",23.27 ± 0.71 g
same,BODY WEIGHTS,"[3]; 20 ug/head/day, Day 11",23.98 ± 0.79 g
same,BODY WEIGHTS,"[3]; 60 ug/head/day, Day 1",21.77 ± 0.87 g
same,BODY WEIGHTS,"[3]; 60 ug/head/day, Day 7",23.07 ± 1.13 g
same,BODY WEIGHTS,"[3]; 60 ug/head/day, Day 11",23.97 ± 1.14 g
same,HAIR AREA (%),"[4]; 20 ug/head/day, Day 1",0.13 ± 0.13%
same,HAIR AREA (%),"[4]; 20 ug/head/day, Day 4",0.32 ± 0.14%
same,HAIR AREA (%),"[4]; 20 ug/head/day, Day 7",0.44 ± 0.17%
same,HAIR AREA (%),"[4]; 20 ug/head/day, Day 10",8.81 ± 3.57%
same,HAIR AREA (%),"[4]; 20 ug/head/day, Day 14",56.95 ± 9.83%
same,HAIR AREA (%),"[4]; 60 ug/head/day, Day 1",0.17 ± 0.11%
same,HAIR AREA (%),"[4]; 60 ug/head/day, Day 4",0.33 ± 0.22%
same,HAIR AREA (%),"[4]; 60 ug/head/day, Day 7",0.50 ± 0.26%
same,HAIR AREA (%),"[4]; 60 ug/head/day, Day 10",8.20 ± 3.43%
same,HAIR AREA (%),"[4]; 60 ug/head/day, Day 14",61.95 ± 11.30%
same,HAIR WEIGHTS,[5]; 20 ug/head/day for 14 days,0.010 ± 0.003 g
same,HAIR WEIGHTS,[5]; 60 ug/head/day for 14 days,0.016 ± 0.005 g
NH2—RPTRGDCDLPEFCPG—COOH (H-RPTRGDCDLPEFCPG-OH; cysteine pairing not given here; listed as Homo sapiens) [HU025],BODY WEIGHTS,"[3]; 20 ug/head/day, Day 1",21.20 ± 1.23 g
same,BODY WEIGHTS,"[3]; 20 ug/head/day, Day 7",22.63 ± 1.01 g
same,BODY WEIGHTS,"[3]; 20 ug/head/day, Day 11",23.77 ± 1.17 g
same,BODY WEIGHTS,"[3]; 60 ug/head/day, Day 1",21.53 ± 0.63 g
same,BODY WEIGHTS,"[3]; 60 ug/head/day, Day 7",23.20 ± 0.83 g
same,BODY WEIGHTS,"[3]; 60 ug/head/day, Day 11",24.23 ± 1.02 g
same,HAIR AREA (%),"[4]; 20 ug/head/day, Day 1",0.04 ± 0.03%
same,HAIR AREA (%),"[4]; 20 ug/head/day, Day 4",0.06 ± 0.05%
same,HAIR AREA (%),"[4]; 20 ug/head/day, Day 7",0.47 ± 0.22%
same,HAIR AREA (%),"[4]; 20 ug/head/day, Day 10",2.04 ± 0.66%
same,HAIR AREA (%),"[4]; 20 ug/head/day, Day 14",39.88 ± 8.74%
same,HAIR AREA (%),"[4]; 60 ug/head/day, Day 1",0.04 ± 0.04%
same,HAIR AREA (%),"[4]; 60 ug/head/day, Day 4",0.42 ± 0.33%
same,HAIR AREA (%),"[4]; 60 ug/head/day, Day 7",0.72 ± 0.51%
same,HAIR AREA (%),"[4]; 60 ug/head/day, Day 10",19.61 ± 9.01 %
same,HAIR AREA (%),"[4]; 60 ug/head/day, Day 14",75.45 ± 6.65 %
same,HAIR WEIGHTS,[5]; 20 ug/head/day for 14 days,0.005 ± 0.002 g
same,HAIR WEIGHTS,[5]; 60 ug/head/day for 14 days,0.021 ± 0.007 g
same,intraocular pressure change,[1],had an effect in reducing the intraocular pressure
same,intraocular pressure change,[1]; listed as sample 3,A reduction in intraocular pressure was observed
same,optic nerve cell death / protection,[2],protection from optic nerve cell death was observed
